The values that follow come from patent EP0097633B1, “Determination of the sensitivity of virus to antiviral agents” (Wahren, Britta, priority 1982, dated 1984).

Assay [1] concerns HSV-1. Kind of assay: VSA on HL-cells infected with HSV-1, virus antigen measured in supernatant and in cells disrupted with distilled water (Example 2). Type of assay: cell-based. To be noted: for Absorbance values at 405 nm: 3 days. On the procedure:
(§1) Sterile plastic plates comprising 24 wells, each having a culture surface of 2.5 cm^2 and containing about 5 x 10^5 HL-cells/well were inoculated with 0.1 ml of virus dilutions as above. Such of the above virus dilutions only containing a small amount of virus are first cultured for 3 days in HL-cells, on which virus replicates, after which the virus isolate from one cell passage is taken out, is diluted 1:30 and 0.1 ml of the dilutions is added to the plates as indicated above. The cells are then incubated at a temperature of 32-37°C, with addition of different antiviral agents, and without any addition of antiviral agent to obtain reference values. Each antiviral agent is added in a dilution series comprising six different concentrations (Cl-C6), some of which correspond to desired serum concentrations for the treatment of patients. In table 1 is indicated the antiviral agents and concentrations thereof used.
(§2) The supernatant is sucked off and in order to achieve cell disrupture 800 µl of distilled water are added to the cells on the plates. The plates are frozen at -20°C and after some time sufficient for formation of ice crystals (about 15 min) the plates are thawed to room temperature for measurement of virus antigen. If desired, the plates can be preserved in a frozen state for a long time before they are thawed in order to carry out the measurement of virus antigen. When the plates have thawed 200 µl of NaCI of 4.5% are added to the cells in order to obtain an isotonic solution.
The amount of virus antigen formed is thereafter determined as follows. Guinea pig anti-HSV-serum is diluted in 0.1-M sodium carbonate buffer. 0.1 ml of the serum dilution is filled per well in microplates (M 29 AR, Dynatech, Zug, Switzerland) which have been washed three times with NaCI-solution of 0.9% containing 0.05% of Tween® 20, after which the plates are incubated for 16 hours at room temperature. The plates can be preserved sealed with their contents at +4°C up to 2-3 months. The optimal antibody concentration has been determined by antibody titration with the respective antigen and control antigen.
(§3) 0.1 ml of the cell material obtained above or a known virus antigen is filled into plates treated with antibody and is incubated for 4 hours at +4°C. After washing with the washing solution indicated above 0.1 ml of rabbit anti-HSV is added and the plates are incubated for 2 hours at +37°C. The plates are washed and 0.1 ml of conjugate is added, after which they are incubated for 2 hours at +37°C. The conjugate consists of pig anti-rabbit IgG conjugated with alkaline phosphatase (Orion Diagnostica, Helsinki, Finland) in a dilution of 1:100. Non-bonded conjugate is washed off before 100 pl of the substrate p-nitrophenyl phosphate (1 mg/ml, Sigma, St Louis, MO, USA) are added. For dilution of the substrate 1 M diethanol buffer, pH 9.8 containing 0.5 x 10-^3 M MgC12 is used and for dilution of antisera and conjugate phosphate buffer (PBS), pH 7.3-7.4 with 0.5% of Tween® 20, 0.5% of BSA (bovine serum albumin) and 0.02% of NaN3 is used. The reaction is stopped after 20-60 min with 0.025 ml of 5 M NaOH. The absorbance (A) is thereafter read at 405 nm with Titertek Multiskan® (Flow Laboratories, Irvine, Scotland). Absorbance values then obtained at the concentrations C1―C6 of the antiviral agents from table 1 and at the concentration Co = O are indicated in the following table 2.
HL-cells infected with HSV-1 were incubated in the same way as in example 1 in the presence of Ara-A and IDU in the concentrations indicated in table 1 for 3 days. Reference culture without addition of antiviral agent was also carried out. The virus antigen in the supernatant (---) and in cells disrupted with distilled water (-) was thereafter measured in the same way as in example 1, and the results are found in table 3 and Fig. 2.

In assay [2] the test system is virus isolate from an eye IDU treated with without result. The assay is described as follows: VSA on a virus isolate from an eye treated with IDU without result (Example 3). The format is cell-based. How it is done: as §1, §2
The amount of virus antigen formed is thereafter determined as follows. Guinea pig anti-HSV-serum is diluted in 0.1-M sodium carbonate buffer. 0.1 ml of the serum dilution is filled per well in microplates (M 29 AR, Dynatech, Zug, Switzerland) which have been washed three times with NaCI-solution of 0.9% containing 0.05% of Tween® 20, after which the plates are incubated for 16 hours at room temperature. The plates can be preserved sealed with their contents at +4°C up to 2-3 months.
as §3, with “Scotland).” for “Scotland). Absorbance values then obtained at the concentrations C1―C6 of the antiviral agents from table 1 and at the concentration Co = O are indicated in the following table 2.”

Setting [3] is: cells disrupted with distilled water, C1: Ara-A 5, IDU 0.5 μM.
Setting [4] is: cells disrupted with distilled water, C2: Ara-A 10, IDU 1 μM.
Setting [5] is: cells disrupted with distilled water, C3: Ara-A 20, IDU 2 μM.
[6] abbreviates: cells disrupted with distilled water, C4: Ara-A 40, IDU 4 μM.
The mark [7] stands for this setting: cells disrupted with distilled water, C5: Ara-A 80, IDU 8 μM.
The mark [8] stands for this setting: cells disrupted with distilled water, C6: Ara-A 160, IDU 16 μM.
Setting [9] is: supernatant, C1: Ara-A 5, IDU 0.5 μM.
The mark [10] stands for this setting: supernatant, C2: Ara-A 10, IDU 1 μM.
Setting [11] is: supernatant, C3: Ara-A 20, IDU 2 μM.
The mark [12] stands for this setting: supernatant, C4: Ara-A 40, IDU 4 μM.
[13] abbreviates: supernatant, C5: Ara-A 80, IDU 8 μM.
The mark [14] stands for this setting: supernatant, C6: Ara-A 160, IDU 16 μM.
Setting [15] is: C1: Ara-A 5, ACV 0.15, PFA 25, IDU 0.5 μM, C0 (no agent) 1.605.
[16] abbreviates: C2: Ara-A 10, ACV 0.31, PFA 50, IDU 1 μM, C0 1.605.
The mark [17] stands for this setting: C3: Ara-A 20, ACV 0.63, PFA 100, IDU 2 μM, C0 1.605.
Where [18] appears, read: C4: Ara-A 40, ACV 1.25, PFA 200, IDU 4 μM, C0 1.605.
The mark [19] stands for this setting: C5: Ara-A 80, ACV 2.5, PFA 400, IDU 8 μM, C0 1.605.
Setting [20] is: C6: Ara-A 160, ACV 5, PFA 800, IDU 16 μM, C0 1.605.

For the molecule `Nc1ncnc2c1ncn2C1OC(CO)C(O)C1O` (stereo not shown) [Ara-A, adenosine-arabinoside], the “Absorbance values at 405 nm” value in assay [1] (setting [3]) is 1.130 ± 0.052; in assay [1] (setting [4]), 1.073 ± 0.054; in assay [1] (setting [5]) it was 0.863 ± 0.030; in assay [1] (setting [6]) it was 0.513 ± 0.025; in assay [1] (setting [7]), 0.142 ± 0.009; in assay [1] (setting [8]), 0.119. For the same molecule, the “Absorbance values at 405 nm” value in assay [1] (setting [9]) was 0.384 ± 0.025; in assay [1] (setting [10]), 0.323 ± 0.010; in assay [1] (setting [11]), 0.276 ± 0.006; in assay [1] (setting [12]), 0.184 ± 0.009; in assay [1] (setting [13]), 0.099 ± 0.006; in assay [1] (setting [14]), 0.099. Further, the “50% of inhibition of antigen formation in the cells” value in assay [1] (read from Fig. 2, disrupted cells) was “in clinically relevant concentrations”. Also, the adsorbance values was 1.572 in assay [2] (setting [15]); 1.482 in assay [2] (setting [16]); 0.750 in assay [2] (setting [17]); 0.155 in assay [2] (setting [18]); 0.071 in assay [2] (setting [19]); 0.039 in assay [2] (setting [20]).
Consider `O=c1[nH]c(=O)n([C@H]2C[C@H](O)[C@@H](CO)O2)cc1I` [IDU, iododeoxyuridine], for which the “Absorbance values at 405 nm” value in assay [1] (setting [3]) stood at 1.130 ± 0.052; in assay [1] (setting [4]), 1.075 ± 0.054; in assay [1] (setting [5]) it was 0.863 ± 0.030; in assay [1] (setting [6]), 0.513 ± 0.025; in assay [1] (setting [7]), 0.142 ± 0.009; in assay [1] (setting [8]), 0.119. Moreover, the “Absorbance values at 405 nm” value in assay [1] (setting [9]) is listed as 0.320 ± 0.037; in assay [1] (setting [10]), 0.259 ± 0.005; in assay [1] (setting [11]), 0.201 ± 0.025; in assay [1] (setting [12]), 0.142 ± 0.019; in assay [1] (setting [13]) it was 0.091 ± 0.017; in assay [1] (setting [14]), 0.143. Besides, the adsorbance values in assay [2] (setting [15]) is 1.207; in assay [2] (setting [16]), 1.165; in assay [2] (setting [17]) it was 0.951; in assay [2] (setting [18]), 0.739; in assay [2] (setting [19]), 0.706; in assay [2] (setting [20]) it was 0.502.
